Results reported in patent US20130217678A1, “PHARMACEUTICAL AGENT COMPRISING QUINOLONE COMPOUND” (OTSUKA PHARMACEUTICAL CO., LTD., priority 2008, published 2013).

Columns and labels:
[1] = tested on: human neuroblastoma cell lines SH-SY5Y treated with 1-methyl-4-phenylpyridinium (MPP+); assay: Improvement of mitochondrial function (Alamar Blue mitochondrial oxidation reduction activity) in MPP+-treated SH-SY5Y cells; format: cell-based; conditions: 1.5 mM MPP+, relative to cells in DMSO alone = 100%, read-out: Fluorescence Intensity (%); for activity at 0.01 µg/mL: compound 0.01 μg/ml; for activity at 0.03 µg/mL: compound 0.03 μg/ml; for activity at 0.1 µg/mL: compound 0.1 μg/ml; for activity at 0.3 µg/mL: compound 0.3 μg/ml; for activity at 1 µg/mL: compound 1 μg/ml
Experimental: In human neuroblastoma cell lines SH-SY5Y in which mitochondrial function was damaged by MPP^+ treatment (Bollimuntha S. et al., J Biol Chem, 280, 2132-2140 (2005) and Shang T. et al., J Biol Chem, 280, 34644-34653 (2005)), the improvement of mitochondrial function was evaluated on the basis of the measurement value for mitochondrial oxidation reduction activity using Alamar Blue fluorescent dye after the compound addition (Nakai M. et al, Exp Neurol, 179, 103-110 (2003)).
The human neuroblastoma cell lines SH-SY5Y were cultured in Dulbecco's Modified Eagle's Medium containing 10% fetal bovine serum (DMEM containing 50 units/ml penicillin and 50 μg/ml streptomycin as antibiotics) at 37° C. in the presence of 5% carbon dioxide. Cells were scattered on a poly-D-lysine-coated 96-well black plate at a concentration of 3−6×10^4 cells/cm^2 (medium amount: 100 μl/well) and cultured in the medium for two days. Further, the medium was changed to DMEM containing a 1% N2 supplement (N2-DMEM) or to a medium (100 μl/well) in which 1.5 mM MPP^+ was dissolved. The cells were cultured therein for 39 to 48 hours, and then subjected to a mitochondrial oxidation reduction activity measurement system. A sample compound that had been previously dissolved in dimethyl sulfoxide (DMSO) was diluted with N2-DMEM and added in a volume of 10 μl/well 24 hours before the activity measurement (final compound concentration: 0.01 to 1 μg/ml).
After removal of the medium by suction, a balanced salt solution containing 10% Alamar Blue (154 mM sodium chloride, 5.6 mM potassium chloride, 2.3 mM calcium chloride, 1.0 mM magnesium chloride, 3.6 mM sodium hydrogen carbonate, 5 mM glucose, 5 mM HEPES, pH 7.2) was added in a volume of 100 μl/well, and reacted in an incubator at 37° C. for 1 hour. The fluorescent intensity was detected using a fluorescence detector (a product of Hamamatsu Photonics K.K., excitation wavelength: 530 nm, measurement wavelength: 580 nm) to thereby measure the mitochondrial oxidation reduction activity.
The fluorescent intensity of the well of the cells cultured in a medium containing MPP^+ and each of the sample compounds was relatively evaluated based on the 100% fluorescent intensity of the well of the cells cultured in a medium containing DMSO alone (final concentration: 0.1%).

| Structure (SMILES) | melting point [°C] | activity at 0.01 µg/mL [1] [%] | activity at 0.03 µg/mL [1] [%] | activity at 0.1 µg/mL [1] [%] | activity at 0.3 µg/mL [1] [%] | activity at 1 µg/mL [1] [%] |
| --- | --- | --- | --- | --- | --- | --- |
| COc1ccc(OCC2CC2)c2[nH]c(C)c(-c3ccco3)c(=O)c12 [Example 109, 8-Cyclopropylmethoxy-3-furan-2-yl-5-methoxy-2-methyl-1H-quinolin-4-one] | 189 to 190 | 49 | 62 | 65 | 82 | 73 |
| CCCOc1ccc(OC)c2c(=O)c(-c3cccc4ccccc34)c[nH]c12 [Example 51, 5-Methoxy-3-naphthalen-1-yl-8-propoxy-1H-quinolin-4-one] | 130 to 133 | 37 | 45 | 54 | 65 | 49 |
| COc1ccc(-c2c[nH]c3c(-c4ccco4)ccc(C)c3c2=O)cc1 [Example 96, 8-Furan-2-yl-3-(4-methoxyphenyl)-5-methyl-1H-quinolin-4-one] | 129 to 131 | 54 | 64 | 68 | 60 | 23 |
| CCn1cc(-c2ccc(OC)cc2)c(=O)c2ccc(OC)cc21 [Example 2, 1-Ethyl-7-methoxy-3-(4-methoxyphenyl)-1H-quinolin-4-one] | 129 to 131 | 71 | 73 | 74 | 77 | 81 |
| CCCOc1ccc(C)c2c(=O)c(-c3ccsc3)c[nH]c12 [Example 58, 5-Methyl-8-propoxy-3-thiophen-3-yl-1H-quinolin-4-one] | 104 to 107 | 42 | 53 | 60 | 61 | 55 |
| CCCOc1ccc(C)c2c(=O)c(-c3csc4ccccc34)c[nH]c12 [Example 63, 3-Benzo[b]thiophen-3-yl-5-methyl-8-propoxy-1H-quinolin-4-one] | 80 to 82 | 40 | 48 | 57 | 43 | 21 |
| CCCOc1ccc(OC)c2c(=O)c(-c3ccc(OC)cc3)c[nH]c12 [Example 13, 5-Methoxy-3-(4-methoxyphenyl)-8-propoxy-1H-quinolin-4-one] | 223 to 224 | 56 | 65 | 74 | 69 | 62 |
| CCCOc1ccc(C)c2c(=O)c(-c3ccc4c(c3)OCO4)c[nH]c12 [Example 60, 3-Benzo[1,3]dioxol-5-yl-5-methyl-8-propoxy-1H-quinolin-4-one] | 110 to 115 | 52 | 65 | 75 | 70 | 44 |
| CCCCc1ccc(C(=O)N(C)C)c2c(=O)c(-c3ccc(OC)cc3)c[nH]c12 [Example 82, 8-Butyl-3-(4-methoxyphenyl)-4-oxo-1,4-dihydroquinolin-5-carboxylic acid dimethylamide] | 198 to 200 | 63 | 62 | 62 | 69 | 81 |
| CCCOc1cc(F)cc2c(=O)c(-c3ccc(OC)cc3)c[nH]c12 [Example 34, 6-Fluoro-3-(4-methoxyphenyl)-8-propoxy-1H-quinolin-4-one] | 153 to 154 | 47 | 53 | 53 | 63 | 53 |
| CCCOc1ccc(COC)c2c(=O)c(-c3ccc(OC)cc3)c[nH]c12 [Example 64, 5-Methoxymethyl-3-(4-methoxyphenyl)-8-propoxy-1H-quinolin-4-one] | 81 to 83 | 51 | 56 | 63 | 53 | 38 |
| CCCOc1ccc(C(=O)N(C)C)c2c(=O)c(-c3ccc(OC)cc3)c[nH]c12 [Example 87, 3-(4-Methoxyphenyl)-4-oxo-8-propoxy-1,4-dihydroquinolin-5-carboxylic acid dimethylamide] | 218 to 220 | 57 | 57 | 60 | 65 | 66 |
| COc1ccc(-c2c[nH]c3c(N4CCCC4)ccc(C)c3c2=O)cc1 [Example 68, 3-(4-Methoxyphenyl)-5-methyl-8-pyrrolidin-1-yl-1H-quinolin-4-one] | 177 to 178 | 49 | 56 | 62 | 57 | 33 |
| CCCOc1c(OC)cc(C)c2c(=O)c(-c3ccc(OC)cc3)c[nH]c12 [Example 37, 7-Methoxy-3-(4-methoxyphenyl)-5-methyl-8-propoxy-1H-quinolin-4-one] | 195 to 196 | 47 | 54 | 55 | 60 | 59 |
| COc1ccc(-c2c[nH]c3c(Oc4ccccc4)cccc3c2=O)cc1 [Example 18, 3-(4-Methoxyphenyl)-8-phenoxy-1H-quinolin-4-one] | 250 to 251 | 29 | 45 | 44 | 47 | 30 |
